One assay concerns 786-O cell line. Kind of assay: CellTiter-Glo growth inhibition assay, 786-O. To be noted: Homo sapiens, 786-0, 72 h. Format: cell-based. On the procedure: CAKI-1 and 786-0 cell lines were maintained in RPMI 1640 medium (Dutscher, L0498) containing 1% penicillin-streptomycin (Dutscher, P06-07100) and 10% Fetal Bovine Serum (Gibco, W3387L) and cultured at 37° C. with 5% CO2.
Cell viability was measured using the CellTiter-Glo® luminescent cell viability assay as described by the manufacturer (Promega, Ref G7571) using an Infinite F200Pro luminometer (Tecan). Briefly, cells were plated onto 96-well plates (white with clear bottom) in 90 μL of media per well and were allowed to grow overnight before the assay.
Compounds 2-3 and two reference compounds (Sorafenib and Sunitinib) were added at different concentrations to each well, and cell cultures were incubated for 72 h. For compound 2-3 analysis, H2O was used as a negative control (=untreated) and all concentrations were tested in a constant percentage of H2O. For Sorafenib and Sunitinib analysis, DMSO was used as a negative control (=untreated) and all concentrations were tested in a constant percentage of DMSO. 72 h after incubation of compounds, 100 μL of CellTiter-Glo® were added to each well and luminescence was measured using an Infinite F200Pro (Tecan). EC50 values were determined as the dose of compound required to reduce luminescent values to 50% of the signal obtained for untreated cell cultures. The experimental data were analyzed using a computer program, Graphpad Prism v5 (GraphPad Software, Inc. La Jolla, Calif.). All experiments were at least done in triplicate and repeated at least three independent times.
A general note: Cellular ATP, detected with luciferase, serves as a proxy for viable cell number.

Assay [1] concerns PBMC (peripheral blood mononuclear cell). Description: CellTiter-Glo growth inhibition assay, PBMC. It counts as cell-based. The following applies: 72 h. On the procedure:
(§1) All cell lines were maintained in medium containing 1% penicillin-streptomycin (Dutscher, P06-07100) and 10% Fetal Bovine Serum (Gibco, W3387L) except 20% for KG-1 cell line and PBMC, and cultured at 37° C. with 5% CO2.
PBMC was maintained in RPMI 1640 medium medium (Dutscher, L0498).
(§2) Cell viability was measured using the CellTiter-Glo® luminescent cell viability assay as described by the manufacturer (Promega, Ref G7571) using an Infinite F200Pro luminometer (Tecan). Briefly, for adherent cells, cells were plated onto 96-well plates (white with clear bottom) in 90 μL of media per well and were allowed to grow overnight before the assay. For cells growing in suspension, cells were plated onto 96-well plates immediately before the assay.
(§3) Compounds were added at different concentrations to each well, and cell cultures were incubated for 72 h. Vehicle (H2O) was used as a control, and all compounds were tested in a constant percentage of H2O. After addition of 100 μL of CellTiter-Glo®, luminescence was measured using an Infinite F200Pro (Tecan). EC50 values were determined as the dose of compound required to reduce luminescent values to 50% of the signal obtained for untreated cell cultures. The experimental data were analyzed using a computer program, Graphpad Prism v5 (GraphPad Software, Inc. La Jolla, Calif.). […]

A further assay concerns Huh-7 cell line. Kind of assay: CellTiter-Glo growth inhibition assay, Huh-7. Format: cell-based. The following applies: Homo sapiens; Huh-7, hepatocellular carcinoma, 72 h. On the procedure: as §1
HepG2, Huh7, HCT-116, MDA-MB-231 and A375 cell lines were cultured in Dulbecco's modified Eagle's medium (Dutscher, L0103).
as §2, §3

Assay [2] has as its system LI1646 HCC patient derived cells. Kind of assay: CellTiter-Glo growth inhibition, HCC patient-derived cells LI1646. Format: cell-based, human. The following applies: Homo sapiens; LI1646, 72 hours. Here is the method: (§4) The patient derived Hepatocellular Carcinoma (HCC) cells were maintained in medium respectively described in table 15 containing 1% penicillin-streptomycin (Life Technologies, 15070-063), with a supplements for primary cell culture (PCS) containing hydrocortisone (50 nM), Epidermal Growth Factor (20 ng/ml), β-fibroblast Growth Factor (10 ng/ml), Heparin (2 μg/ml) ITS liquid media supplement (1×) and non-essential amino acid (NEAA, 0.01 mM, 1×). The primary cell were cultured in a humidified atmosphere (95% relative humidity) with 5% CO2 at 37° C.
(§5) The cell growth inhibition assay was performed as described previously in example 5 using the CellTiter-Glo® luminescent cell viability assay as described by the manufacturer (Promega, Ref G7571). The number of cells seeded per well (in 96-Well Flat Clear Bottom Black Polystyrene TC-Treated Microplates, Cat #3340, Corning®) is described in the table 16. A backseal black sticker (Cat #6005189, Perkin Elmer) was placed to the bottom of each plate before recording CellTiter-Glo® luminescence.
(§6) The experimental data are analyzed using a computer program, Graphpad Prism V 5.0 (GraphPad Software, Inc. La Jolla, Calif.) and EC50 values were determined as the dose of compound required to reduce absorbance values to 50% of the signal obtained for vehicle treated cell cultures and were a mean of at least three independent experiments.

The subject of assay [3] is LI1098 HCC patient derived cells. Description: CellTiter-Glo growth inhibition, HCC patient-derived cells LI1098. It counts as cell-based, human. To be noted: Homo sapiens; LI1098, 72 hours. On the procedure:
as §4, §5, §6

For assay [4], the system named is LI0612 HCC patient derived cells. Description: CellTiter-Glo growth inhibition, HCC patient-derived cells LI0612. It counts as cell-based, human. To be noted: Homo sapiens; LI0612, 72 hours. Here is the method: as §4, §5, §6
The next assay relates to MRC-5 cell line. Description: CellTiter-Glo growth inhibition assay, MRC-5. It counts as cell-based. To be noted: MRC5; MRC-5, human fetal lung fibroblast, 72 h. On the procedure: as §1
MRC-5 cell line was maintained in MEM (Dutscher, L0416).
as §2
Compounds were added at different concentrations to each well, and cell cultures were incubated for 72 h. Vehicle (H2O) was used as a control, and all compounds were tested in a constant percentage of H2O. After addition of 100 μL of CellTiter-Glo®, luminescence was measured using an Infinite F200Pro (Tecan). EC50 values were determined as the dose of compound required to reduce luminescent values to 50% of the signal obtained for untreated cell cultures. The experimental data were analyzed using a computer program, Graphpad Prism v5 (GraphPad Software, Inc. La Jolla, Calif.).
All experiments were at least done in duplicate and repeated two independent times.

Another assay deals with MV4-11 cell line. Kind of assay: CellTiter-Glo growth inhibition assay, MV4-11. It counts as cell-based. To be noted: Homo sapiens; MV4-11, biphenotypic B myelomonocytic leukemia, 72 h. On the procedure: as §1
KG-1 and MV4-11 cell line were maintained in Iscove's modified Dulbecco's medium (Dutscher, L0190).
as §2, §3

Molecules are shown by their SMILES. Structures can show the parent of a compound that is named as a salt.

As a reminder, the EC50 is the concentration that produces a half-maximal response. Low values mean higher potency in that assay, high ones lower potency in that assay. `CC(C)(C)NC1CCN(c2cc(NCc3ccc(Cl)cc3)nc3ccccc23)CC1` [Compound 2-3, 2-(4-chlorobenzylamino)-4-(4-tert-butylaminopiperidin-1-yl)-quinoline hydrochloride salt]: the half-maximal effective concentration (EC50) is 2100 nM in the assay on 786-O cell line; 1900 nM in assay [1]; 1700 nM in the assay with Huh-7 cell line; 1400 nM in assay [2]; 7000 nM in assay [3]; 6900 nM in assay [4]. The EC50 is roughly 3400 nM with MRC-5 cell line and 2300 nM in the assay with MV4-11 cell line.

Source of the values: patent US10722505B2, “Substituted 2,4 diamino-quinoline as new anticancer agents” (GENOSCIENCE PHARMA, priority 2014, dated 2020).
